Laboratory results reported in PubChem BioAssay (NCI).
“And” between values parts separate entries of the source, which are not always exact repeats. Identical values can stand only once.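 Results reflect a 48-hour exposure of cells in 96-well plates to compound at five concentrations. GI50 = concentration required for 50% inhibition of growth. TGI denotes the concentration required for complete inhibition of growth.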

Key:
Test in all cases: inhibition of tumour cell growth, NCI panel, 48 h
NCI-H23 lung = system: NCI-H23 lung
NCI-H460 lung = system: NCI-H460 lung
SN12C renal = system: SN12C renal
786-0 renal = system: 786-0 renal
IGROV1 ovarian = system: IGROV1 ovarian
NCI-H226 lung = system: NCI-H226 lung
SK-OV-3 ovarian = system: SK-OV-3 ovarian
SNB-75 CNS = system: SNB-75 CNS
MOLT-4 leukemia = system: MOLT-4 leukemia
TK-10 renal = system: TK-10 renal

Structure (SMILES)	TGI (NCI-H23 lung)	TGI (NCI-H460 lung)	TGI (SN12C renal)	TGI (786-0 renal) [µM]	TGI (IGROV1 ovarian) [µM]	TGI (NCI-H226 lung)	TGI (SK-OV-3 ovarian) [µM]	TGI (SNB-75 CNS)	TGI (MOLT-4 leukemia)	TGI (TK-10 renal) [µM]	GI50 (NCI-H460 lung) [µM]	GI50 (SN12C renal) [µM]	GI50 (786-0 renal) [µM]	GI50 (IGROV1 ovarian) [µM]	GI50 (NCI-H226 lung) [µM]	GI50 (SK-OV-3 ovarian) [µM]	GI50 (SNB-75 CNS)	GI50 (MOLT-4 leukemia) [µM]	GI50 (TK-10 renal)	GI50 (NCI-H23 lung) [µM]
NC(N)=NS(=O)(=O)c1ccc(NCc2c3ccccc3nc3ccccc23)cc1	13.2 µM	19.2 µM	41.3 µM	9.65	65	4.85 µM	27.3	9.02 µM	> 16.5 µM	> 88	–	–	–	–	–	–	–	–	–	–
OCCCN=NNc1ccc(-c2nc3ccccc3[nH]2)cc1	–	> 100 µM	46.6 µM	46.7	45.8	58.9 µM	73	38.6 µM	> 100 µM	82.5	4.65	14.3	17	5.26	26.2	24.2	6.07 µM	43.6	31.9 µM	–
Cn1c2c(c3ccccc31)C1CCCCC1C1C(=O)NC(=O)C21 (configuration not stated)	> 100 µM	> 100 µM	> 100 µM	> 100	> 100	> 100 µM	> 100	71.3 µM	67.5 µM	> 100	–	–	–	–	–	–	–	–	–	–
N#CC(C(=O)/C(=N\Nc1nc(=S)[nH]n1N)C(C#N)c1ccc(Cl)cc1)c1ccc(Cl)cc1 (configuration not stated)	> 100 µM	> 100 µM	> 100 µM	> 100	> 100	> 100 µM	> 100	> 100 µM	–	> 100	–	–	–	–	–	–	–	–	–	–
O=C(CC1(O)C(=O)Nc2ccccc21)c1ccccc1Cl (configuration not stated)	> 100 µM	> 100 µM	> 100 µM	> 100	> 100	> 100 µM	> 100	> 100 µM	> 100 µM	> 100	–	–	–	–	–	–	–	–	–	–
COc1cc(C(=O)/C=C/c2cc(C(=O)c3cc(OC)c(OC)c(OC)c3)ccc2OC)ccc1N	4.1 µM	7.61 µM	4.92 µM	4.08	8.62	7.39 µM	16.1	4.35 µM	> 100 µM	18	2.13	1.62	1.54	2.07	2.14	3.16	1.16 µM	0.616	3.61 µM	1.42
CC/C=C1\N=C(c2ccc(Cl)cc2)OC1=O	> 100 µM	> 100 µM	> 100 µM	> 100	> 100	> 100 µM	> 100	> 100 µM	> 100 µM	> 100	–	–	–	–	–	–	–	–	–	–
Cc1ccc(-c2nc(SCC(=O)O)n[nH]2)cc1	> 100 µM	> 100 µM	> 100 µM	> 100	> 100	> 100 µM	> 100	> 100 µM	> 100 µM	> 100	–	–	–	–	–	–	–	–	–	–
COc1cc(/C=C/c2cc(/C=C/c3ccc(O)c(OC)c3)n(-c3c(C)cccc3C)c(=O)n2)ccc1O	3.98 µM	4.37 µM	> 100 µM	3.41	6.87	7.59 µM	3.37	–	–	4.87	0.683	1.66	0.958	1.24	2.36	0.438	–	–	1.14 µM	1.25
O=S(O)CCCCCSSCCCCSSCCCCCS(=O)O	> 100 µM	> 100 µM	> 100 µM	> 100	> 100	–	> 100	> 100 µM	> 100 µM	> 100	–	–	–	–	–	–	–	–	–	–
CS(=O)CCCCCN=C=S (configuration not stated)	24.5 µM	6.64 µM	11.4 µM	19.5	21.6	44.4 µM	27.3	16.5 µM	–	10.3	2.53	3.44	5.68	4.88	17.5	13.7	3.01 µM	–	3.83 µM	4.21
NS(=O)(=O)c1cc2c(cc1Cl)NC(Cc1ccccc1)NS2(=O)=O (configuration not stated)	> 100 µM	> 100 µM	> 100 µM	> 100	> 100	> 100 µM	> 100	> 100 µM	–	> 100	–	–	–	–	–	–	–	–	–	–
COc1cccc(C2C(C#N)=C(N)Oc3cc(N)ccc32)c1 (configuration not stated)	> 100 µM	> 87 µM	> 100 µM	> 100	> 100	> 100 µM	3.5	> 100 µM	> 52.3 µM	> 100	0.368	0.689	0.632	0.854	5.52	0.4	0.293 µM	0.563	2.83 µM	0.571
O=C(CO)CC(=O)C(=O)Nc1nc([N+](=O)[O-])cs1	> 100 µM	> 100 µM	> 100 µM	> 100	> 100	> 100 µM	> 100	> 100 µM	> 100 µM	> 100	–	–	–	–	–	–	–	–	–	–
Cc1ccc(NC(=O)c2cccc([N+](=O)[O-])c2O)c([N+](=O)[O-])c1	27.6 µM	18.9 µM	53.8 µM	37	44.9	8.4 µM	57.8	29.4 µM	–	–	–	–	–	–	–	–	–	–	–	–
CN(C)c1ccc(C(=C2C=CC(=[N+](C)C)C=C2)c2ccc(N(C)C)cc2)cc1 (tested in a mixture with another compound)	–	–	–	1.02	1.78	–	0.933	0.54 µM	5.67 µM	0.321	–	–	0.104	0.161	–	–	0.0724 µM	0.293	0.0394 µM	–
N/N=C1\C(=O)N(C2CCCCC2)C(=O)C1C(=O)NC1CCCCC1 (configuration not stated)	> 100 µM	> 100 µM	93.6 µM	> 100	> 100	> 100 µM	> 100	> 100 µM	> 100 µM	–	–	–	–	–	–	–	–	–	–	–
COc1ccc(-c2ccc(/C=N/n3c(COc4ccccc4Cl)nn(CN4CCN(C)CC4)c3=S)o2)c([N+](=O)[O-])c1	31 µM	37.6 µM	35.2 µM	39.3	–	43.5 µM	83.8	77.3 µM	–	45.4	14.7	17.9	17.4	–	15.6	30.6	20.3 µM	–	12.9 µM	16.3

Structure (SMILES)	TGI (NCI-H23 lung)	TGI (NCI-H460 lung)	TGI (SN12C renal)	TGI (786-0 renal) [µM]	TGI (IGROV1 ovarian) [µM]	TGI (NCI-H226 lung)	TGI (SK-OV-3 ovarian) [µM]	TGI (SNB-75 CNS)	TGI (MOLT-4 leukemia)	TGI (TK-10 renal) [µM]	GI50 (NCI-H460 lung) [µM]	GI50 (SN12C renal) [µM]	GI50 (786-0 renal) [µM]	GI50 (IGROV1 ovarian) [µM]	GI50 (NCI-H226 lung) [µM]	GI50 (SK-OV-3 ovarian) [µM]	GI50 (SNB-75 CNS)	GI50 (MOLT-4 leukemia) [µM]	GI50 (TK-10 renal)	GI50 (NCI-H23 lung) [µM]
COC1=CC(O)(CC(N)=O)c2ccccc2C1=O (configuration not stated)	–	> 100 µM	> 100 µM	> 100	> 100	> 100 µM	> 100	> 100 µM	> 100 µM	> 100	–	–	–	–	–	–	–	–	–	–
CN1CCCNc2c(c(=O)c2=O)NCCCN(C)CCCNc2c(c(=O)c2=O)NCCCN(C)CCCNc2c(c(=O)c2=O)NCCCN(C)CCCNc2c(c(=O)c2=O)NCCCN(C)CCCNc2c(c(=O)c2=O)NCCCN(C)CCCNc2c(c(=O)c2=O)NCCCN(C)CCCNc2c(c(=O)c2=O)NCCC1	–	> 50 µM	14.2 µM	15.1	23.8	21.8 µM	8.29	19.3 µM	45.2 µM	8.24	3.9	1.34	4.29	3.13	8.43	2.46	9.48 µM	9.7	1.71 µM	–
O=C1C(Br)=CC2(C=C1Br)CCN=c1c2c(O)c2nc3ccccc3c3ccnc1c23	8.41 µM	10.6 µM	5.92 µM	2.37	7.22	–	11	–	2.67 µM	10.3	2.48	1.54	0.987	0.846	–	5.03	–	0.143	3.47 µM	1.91
COc1ccc2oc3c4c2c1CCC4CCC3=O (configuration not stated)	> 100 µM	> 100 µM	> 100 µM	> 100	> 100	–	> 100	> 100 µM	> 100 µM	> 100	–	–	–	–	–	–	–	–	–	–
O=C(O)C1C(C(=O)Nc2ccc3c(c2)Cc2ccccc2-3)C2(Cl)C(Cl)=C(Cl)C1(Cl)C2(Cl)Cl (configuration not stated)	31.3 µM	–	> 100 µM	> 100	44.4	88 µM	> 100	91.8 µM	26.1 µM	68.1	–	–	–	–	–	–	–	–	–	–
CC(C)C1OC(=O)C=C1Sc1ccccc1 (configuration not stated)	–	> 100 µM	> 100 µM	> 100	> 100	> 100 µM	> 100	> 100 µM	> 100 µM	> 100	–	–	–	–	–	–	–	–	–	–
COc1ccc(/C=C2\CCCCC2=O)cc1	> 100 µM	> 100 µM	> 100 µM	> 100	> 100	–	> 100	> 100 µM	> 100 µM	> 100	–	–	–	–	–	–	–	–	–	–
Cc1cccc(Oc2nccc(-c3c(-c4ccc(F)cc4)ncn3C3CCNCC3)n2)c1C	–	> 15 µM	> 25 µM	> 18	> 16.7	–	12.5	> 17.5 µM	17.6 µM	> 16.3	6.24	9.16	8.22	6.76	–	5.72	5.58 µM	7.17	7.16 µM	–
CCN(CC)CCCNc1cccc2c(SCc3ccccc3)ccnc12	5.09 µM	3.45 µM	12.6 µM	2.99	3.75	15.6 µM	4.51	3.22 µM	–	2.98	1.7	1.81	1.56	1.9	3.45	2.02	1.6 µM	–	1.56 µM	1.9
Cc1ccc(C2NC(=S)NC3=C2CCOc2c3ccc3ccccc23)cc1 (configuration not stated)	> 100 µM	> 100 µM	> 100 µM	> 100	–	> 100 µM	> 100	> 100 µM	> 100 µM	> 100	64.8	> 100	> 100	–	> 100	> 100	> 100 µM	7.97	> 100 µM	> 100
CC[C@H]1CN2CCc3cc(OC)c(OC)cc3[C@@H]2C[C@@H]1C[C@H]1NCCc2cc(O)c(OC)cc21	0.0584 µM and 0.115 µM	0.0586 µM and 0.0651 µM and 0.186 µM	0.0787 µM and 0.552 µM	0.0381	–	0.0593 µM and 0.0285 µM	–	0.0735 µM and 0.147 µM and 0.0944 µM	0.074 µM and 0.323 µM	0.0644	–	–	0.00714	–	–	–	0.0155 µM and 0.025 µM	–	0.0278 µM and < 0.0128 µM	–
CSc1cnn(CCC#N)c(=O)n1	> 100 µM	–	> 100 µM	> 100	> 100	> 100 µM	> 100	> 100 µM	> 100 µM	> 100	–	–	–	–	–	–	–	–	–	–
COc1ccc(C2=NNC(=O)OC2c2ccccc2)cc1 (configuration not stated)	> 100 µM	> 100 µM	> 100 µM	> 100	> 100	> 100 µM	–	> 100 µM	> 100 µM	> 100	–	–	–	–	–	–	–	–	–	–
CCn1cc(/C=C/C(C)c2cn(CC)c(=O)[nH]c2=O)c(=O)[nH]c1=O (configuration not stated)	> 100 µM	> 100 µM	> 100 µM	> 100	> 100	–	> 100	> 100 µM	> 100 µM	> 100	–	–	–	–	–	–	–	–	–	–
O=C(OCc1ccccc1)N1CCN(/[N+]([O-])=N/Oc2ccc([N+](=O)[O-])cc2[N+](=O)[O-])CC1	44.8 µM	40.6 µM	30.1 µM	6.97	23.2	26.3 µM	–	32.7 µM	> 100 µM	33.4	9.96	11.5	2.45	2.01	3.55	–	15.6 µM	4.47	17.6 µM	6.45
CN(C)c1ccc(N=Cc2c([O-])ccc3ccccc23)cc1.[C-]#[O+].[C-]#[O+].[Ir]	36.8 µM	–	35.5 µM	65.1	65	33.1 µM	> 100	50.4 µM	95 µM	53.3	–	19	25.1	21.1	15.2	34.4	19.3 µM	15.4	22.5 µM	15.3
CCSCC(N)C(=O)O (configuration not stated)	> 100 µM	> 100 µM	> 100 µM	> 100	> 100	> 100 µM	> 100	> 100 µM	–	> 100	–	–	–	–	–	–	–	–	–	–
